In paper PMC6199744, “Development of Chemical Proteomics for the Folateome and Analysis of the Kinetoplastid Folateome” (ACS Infectious Diseases, 2018):
Read-outs that look alike come from different tables or passages of the source.

Test system: T. brucei lysate proteins
Assay type: binding, Trypanosoma brucei
Conditions: vehicle control = 1

NCCOCCOCC(=O)Nc1nc2ncc(CNc3ccc(C(=O)NC(CCC(=O)O)C(=O)O)cc3)nc2c(=O)[nH]1 (stereo not shown) [compound 6]
fold change (protein TB427.06.2550 RNA-BINDING PROTEIN, PUTATIVE): 0.94 | fold change (protein TB427.06.3500 ENDOSOMAL T[…] RME-8, PUTATIVE): 0.83 | fold change (protein TB427.06.3630 SPHINGOSINE 1-PHOSPHATE LYASE, PUTATIVE): 0.95 | fold change (protein TB427.06.3650 ADP-RI[…], PUTATIVE): 0.98 | fold change (protein TB427.06.3670 PAR[…] COMPONENT, PUTATIVE): 0.88 | fold change (protein TB427.06.4890 S-ADENOSYL[…], PUTATIVE): 1.19 | fold change (protein TB427.06.700 ALANYL-TRNA SYNTHETASE, PUTATIVE): 0.97 | fold change vs vehicle control (protein TB427.07.1300 PROTEIN DISULFIDE ISOMERASE, PUTATIVE): 1.37 | fold change (protein TB427.07.2340 40S RIBOSOMAL PROTEIN S15, PUTATIVE): 0.89 | fold change (protein TB427.07.2770 HY[…], CONSERVED): 0.86 | fold change (protein TB427.07.3530 HY[…], CONSERVED): 0.98 | fold change (protein TB427.07.3980 IMMU[…], PUTATIVE): 0.79 | fold change vs vehicle control (protein TB427.07.4170 FATTY ACID ELONGASE, PUTATIVE): 0.97 | fold change (protein TB427.07.4180 FATTY ACID ELONGASE, PUTATIVE): 0.95 | fold change (protein TB427.07.4970 GLUTAMINE SYNTHETASE, PUTATIVE): 0.85 | fold change (protein TB427.07.7070 HY[…], CONSERVED): 0.92 | fold change vs vehicle control (protein TB427.07.7500 THYMINE-7-HYDROXYLASE, PUTATIVE): 0.35 | fold change (protein TB427.08.2060 HY[…], CONSERVED): 0.87 | fold change (protein TB427.08.2080 HY[…], CONSERVED): 1.19 | fold change (protein TB427.08.3490 HY[…], CONSERVED): 0.98 | fold change (protein TB427.08.3530 GLYCEROL-3-PHOSPHATE DEH[…]+], GLYCOSOMAL): 1 | fold change vs vehicle control (protein TB427.08.3660 PROTEIN TRANSPORT PROTEIN SEC23): 0.99 | fold change vs vehicle control (protein TB427.08.3750 NUCLEOLAR PROTEIN, PUTATIVE): 0.96 | fold change (protein TB427.08.3870 HY[…], CONSERVED): 0.99 | fold change (protein TB427.08.4210 HY[…], CONSERVED): 1.19 | fold change (protein TB427.08.650 CATION-TR[…], PUTATIVE): 0.94 | fold change (protein TB427.10.10020 HY[…], CONSERVED): 0.97 | fold change (protein TB427.10.10350 PROTEIN KINASE, PUTATIVE): 0.86 | fold change (protein TB427.10.10360 MICROTUBULE-[…], PUTATIVE): 0.85 | fold change vs vehicle control (protein TB427.10.10610 PROTEIN TYROSINE PHOSPHATASE, PUTATIVE): 1.7 | fold change vs vehicle control (protein TB427.10.1100 60S RIBOSOMAL PROTEIN L9, PUTATIVE): 1.14 | fold change vs vehicle control (protein TB427.10.12510 P-TYPE H+-ATPASE, PUTATIVE): 1.28 | fold change (protein TB427.10.12710 HEAT SHOCK PROTEIN, PUTATIVE): 1.53 | fold change vs vehicle control (protein TB427.10.14470 INTR[…] PROTEIN IFT140, PUTATIVE): 1.46 | fold change (protein TB427.10.1450 HY[…], CONSERVED): 0.97 | fold change vs vehicle control (protein TB427.10.14550 ATP-DEPENDENT DEAD/H RNA HELICASE, PUTATIVE): 1.1 | fold change vs vehicle control (protein TB427.10.14930 HY[…], CONSERVED): 0.95 | fold change vs vehicle control (protein TB427.10.14950 RNA BINDING PROTEIN, PUTATIVE): 0.98 | fold change (protein TB427.10.14990 INTR[…] PROTEIN IFT80/CHE2, PUTATIVE): 1.1 | fold change (protein TB427.10.15720 […]-ATP-ASE SUBUNIT 9): 0.84 | fold change (protein TB427.10.2020 HEXOKINASE): 1.29 | fold change (protein TB427.10.2290 CHAPERONE PROTEIN DNAJ, PUTATIVE): 0.86 | fold change (protein TB427.10.2440 METACASPASE MCA4): 0.89 | fold change vs vehicle control (protein TB427.10.3470 HY[…], CONSERVED): 1.1 | fold change vs vehicle control (protein TB427.10.5810 HY[…], CONSERVED): 1.81 | fold change (protein TB427.10.6150 […]/BEIGE PROTEIN, PUTATIVE): 0.67 | fold change (protein TB427.10.6310 MAJOR VAULT PROTEIN, PUTATIVE): 0.93 | fold change (protein TB427.10.730 ATP SYNTHASE, PUTATIVE): 0.83 | fold change vs vehicle control (protein TB427.10.7620 MIT[…]-DEPENDENT ZINC METALLOPEPTIDASE, PUTATIVE): 0.98 | fold change vs vehicle control (protein TB427.10.8230 PROTEIN DISULFIDE ISOMERASE): 1.84 | fold change (protein TB427.10.8910 HY[…], CONSERVED): 0.91 | fold change vs vehicle control (protein TB927.10.13290 ETHANOLAMINE PHOSPHOTRANSFERASE (EPT)): 1.14 | fold change vs vehicle control (protein TB927.10.13780 GLYCOGEN SYNTHASE KINASE 3): 0.99 | fold change vs vehicle control (protein TB927.10.14980 INTR[…] PROTEIN IFT52, PUTATIVE): 1.23 | fold change vs vehicle control (protein TB927.10.2640 INTR[…] PROTEIN IFT81, PUTATIVE): 0.98 | fold change vs vehicle control (protein TB927.10.2890 ENOLASE): 1.58 | fold change (protein TB927.10.2980 […]-ATPASE SUBUNIT 11): 0.89 | fold change (protein TB927.10.3990 DHH1): 1.1 | fold change (protein TB927.10.4180 TFIIF-[…] PHOSPHATASE, PUTATIVE): 1 | fold change vs vehicle control (protein TB927.10.4570 […] 2): 1.74 | fold change (protein TB927.10.5370 40S RIBOSOMAL PROTEIN S10, PUTATIVE): 0.89 | fold change (protein TB927.10.5500 HY[…], CONSERVED): 0.92 | fold change vs vehicle control (protein TB927.10.560 40S RIBOSOMAL PROTEINS S11, PUTATIVE): 1.25 | fold change (protein TB927.10.6050 CLATHRIN HEAVY CHAIN): 0.85 | fold change (protein TB927.10.7090 A[…]): 1.37 | fold change vs vehicle control (protein TB927.10.8940 HY[…], CONSERVED): 0.88 | fold change (protein TB927.2.2770 HY[…] TB927 2 2770): 1.1 | fold change (protein TB927.2.3800 MRNA […], PUTATIVE): 0.69 | fold change (protein TB927.3.1240 PROTEIN PHOSPHATASE 2A, PUTATIVE): 0.98 | fold change vs vehicle control (protein TB927.3.2960 INOSINE-ADENOSINE-GUANOSINE-[…]): 1.36 | fold change (protein TB927.3.3270 ATP-DEPENDENT PHOSPHOFRUCTOKINASE): 0.93 | fold change vs vehicle control (protein TB927.3.3450 ADP-RI[…]-LIKE PROTEIN 3A, PUTATIVE): 2.16 | fold change vs vehicle control (protein TB927.3.3490 HIGH MOBILITY GROUP PROTEIN, PUTATIVE): 1.55 | fold change (protein TB927.3.3780 TRYPAREDOXIN): 0.94 | fold change vs vehicle control (protein TB927.3.5120 HY[…], CONSERVED (Ankyrin repeats (3 copies), putative)): 1.38 | fold change vs vehicle control (protein TB927.3.740 HY[…], CONSERVED): 0.97 | fold change vs vehicle control (protein TB927.4.2740 HY[…], CONSERVED (p25-alpha, putative)): 1.55 | fold change (protein TB927.4.3590 T[…] 1-BETA, PUTATIVE): 1.46 | fold change vs vehicle control (protein TB927.4.3820 HY[…], CONSERVED): 0.99 | fold change (protein TB927.4.5310 SERINE/THREONINE-PROTEIN KINASE A, PUTATIVE): 0.95 | fold change (protein TB927.5.1630 HY[…], CONSERVED): 0.86 | fold change (protein TB927.5.3220 SIGNAL PEPTIDASE TYPE I, PUTATIVE): 0.87 | fold change vs vehicle control (protein TB927.5.4440 DYNEIN LIGHT CHAIN, PUTATIVE): 0.98 | fold change (protein TB927.6.2200 HY[…], CONSERVED): 1 | fold change vs vehicle control (protein TB927.7.1750 60S RIBOSOMAL PROTEIN L7, PUTATIVE): 1.31 | fold change (protein TB927.7.2140 HY[…]): 0.83 | fold change vs vehicle control (protein TB927.7.4470 HY[…], CONSERVED): 1.18 | fold change vs vehicle control (protein TB927.7.7430 ATP SYNTHASE ALPHA CHAIN, MIT[…]): 1.18 | fold change (protein TB927.8.1510 ATP-DEPENDENT DEAD/H RNA HELICASE, PUTATIVE): 0.96 | fold change (protein TB927.8.1990 PEROXIDOXIN): 0.97 | fold change (protein TB927.8.4770 SMALL GTP-BINDING PROTEIN RAB18): 0.96
